pIC50: −log10 of the molar value. Values belong to the molecule of their own block, whether it stands above or below them.
Tests used:
Syk kinase = target: T1, Syk kinase (Homo sapiens, UniProt P43405); assay: Syk kinase biochemical fluorescence polarization assay; conditions: isolated Syk kinase, fluorescence polarization, 4 uM ATP
T1 construct: purchased Upstate, Lake Placid NY

[1] = test system: Human Jurkat T-cells (clone N); assay: Jurkat T-cell activation (anti-TCR, CD69 upregulation); assay type: cell-based
How it was run: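 Jurkat cells in RPMI + 5% FBS preincubated with compound 1 h at 37 °C, then stimulated with anti-TCR C305 at 500 ng/ml for 20 h. CD69 surface expression stained with anti-CD69-APC and read by flow cytometry; IC50 versus solvent-only control.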

[2] = test system: FcγRI-mediated degranulation; assay: FcγRI-mediated degranulation (anti-human IgG Fab activation); assay type: cell-based; conditions: cells not primed with IgE, activated with rabbit anti-human IgG Fab fragment
Primary human B-cells = assay: Primary B-cell activation (α-IgM, CD69 upregulation); assay type: cell-based; conditions: read-out: 1° B-Cell CD69 IC50
Description: Primary human B-cells were isolated from buffy coat, the white cell layer that forms between the red cells and the […] when anti-coagulated blood is centrifuged, or from fresh blood using CD19-Dynal® beads and a FACS. Buffy coat was obtained from the Stanford Medical School Blood Centre, prepared on the same day by the blood bank, stored and transported cold (with ice). The buffy coat (approx 35 mL) was placed in a 500 mL conical sterile centrifuge pot and cooled on ice, then diluted with cold PBS containing 0.2% BSA (Sigma: A7638) and sodium citrate (0.1%, Sigma: S-5570) (P—B—C) to a total volume of 200 mL and mixed gently. Fresh blood was collected from donors in 10 mL vacutainers containing heparin (1 vacutainer collects approximately 8.5 mL blood). The blood was cooled on ice, transferred into 50 mL falcon tubes (20 mL/tube) or a 500 mL conical sterile centrifuge pot, and diluted with an equal volume P—B—C.
25 mL diluted blood or buffy coat was layered onto 15 mL cold ficoll and placed back on ice. The ficoll layered blood was centrifuged (Beckman GS-6R) for 45 minutes at 2000 rpm, 4° C. to separate the Peripheral Blood Mononuclear Cells (PBMC) from the Red Blood Cells (RBC) and granulocytes. The top aqueous layer was then aspirated until 1 inch above the PBMC layer. The PBMCs were transferred from every 2 ficoll tubes into one clean 50 mL falcon tube (=approx 10 mL/tube). The transferred PBMCs were diluted 5× with icecold PBS with 0.2% BSA (P—B) and centrifuged for 20 min at 1400 rpm and 4° C. The supernatant (this may be cloudy) was then aspirated and the PBMCs resuspended into 25 mL P—B and the cells counted (using a 1:5 dilution) and kept on ice.
The cells were then positively selected using anti-CD 19 antibody coupled to magnetic beads (Dynal®) as per manufacturer's instructions. The approximate required amount of CD19-Dynal® beads (CD19-coated dyna beads M-450 (pabB), Dynal®) was calculated by estimating the number of B-cells as 5% of PBMCs counted and adding approximately10 beads per cell from the bead stock (4×10^8 beads/mL). The CD19-Dynal® beads were washed 2× in P—B in a 5 mL tube using the Dynal® magnet, then added into the suspended PBMCs. This mixture was then passed through the Dynal® magnet and washed several times to separate the bead-bound cells.
After separation, the beads and antibody were removed using Dynal® CD19-DETACHaBEAD® for 45 min at 30° C. Yield is typically 2×10^7 B-cells per buffy coat. B-cells were washed and resuspended as 1E6 cells/mL in RPMI1640+10% FBS+Penicillin/[…]+1 ng/mL IFNα8. Cells were rested overnight at 37° C. and 5% CO2.
The following day, cells were washed and resuspended in RPMI+2.5% FBS to 1×10^6 cells/mL. Cells were then aliquoted into a V-bottom 96-well plate (Corning) at 65 uL cells per well. By robot, 65 uL of a 2× compound was added to the cells with final concentration of DMSO at 0.2%, and incubated for 1 hr at 37° C. Cells were then stimulated with 20 uL 7.5× α-IgM from Jackson laboratories (final 5 ug/mL) for 24 hrs. At day 3, the cells were spun down and stained for CD69 and analyzed by FACS gated on the live cells (by light scatter).
Varied concentrations of compound were compared to solvent only to determine the inhibition of B-cell activation IC50 of each compound.

[3] = test system: cultured human mast cells (CHMC); assay: CHMC high cell density IgE activation: LTC4; assay type: cell-based
Description: (§1) After sensitizing, cells are counted, pelleted (1000 rpm, 5-10 minutes), and resuspended at 1-2 ×10^6 cells/ml in MT buffer. Add 100 ul of cell suspension to each well and 100 ul of compound dilutions. The final vehicle concentration is 0.5% DMSO. Incubate at 37° C. (5% CO2) for 1 hour. After 1 hour of compound treatment, stimulate cells with 6× anti-IgE. Mix wells with the cells and allow plates to incubate at 37° C. (5% CO2) for one hour. After 1 hour incubation, pellet cells (10 minutes, 1000 RPM) and collect 200 ul per well of the supernatant, being careful not to disturb pellet. Place the supernatant plate on ice. During the 7-hour step (see next) perform tryptase assay on supernatant that had been diluted 1:500. Resuspend cell pellet in 240 ul of CM media containing 0.5% DMSO and corresponding concentration of compound. Incubate CHMC cells for 7 hours at 37° C. (5% CO2). After incubation, pellet cells (1000 RPM, 10 minutes) and collect 225 ul per well and place in −80° C. until ready to perform ELISAS. ELISAS are performed on appropriately diluted samples (determined empirically for each donor cell population so that the sample measurement falls within the standard curve) following the supplier's instructions.

[4] = test system: cultured human mast cells (CHMC); assay: CHMC high cell density IgE activation: histamine; assay type: cell-based
Description: as §1

Jurkat cells = assay: Jurkat toxicity, Cell Titer Glo assay; assay type: cell-based, human
Description: Seed 50 μl cells (1×10^6/ml) into each well containing 50 μl compound. […] Shake plates for 1 minute to mix cells and compound. Incubate plates at 37° C. […] Next day, harvest 50 μl cells from each well, add to 50 μl Cell Titer Glo reagent ([…]). Shake plates for 1 minute. Read on luminometer.

[5] = test system: cultured human mast cells (CHMC); assay: CHMC low cell density ionomycin activation: tryptase assay; assay type: cell-based; conditions: Low Density CHMC, ionomycin activation, tryptase release; read-out: CHMC Ionomycin Tryptase IC50
[6] = test system: cultured human mast cells (CHMC); assay: CHMC high cell density IgE activation: hexos; assay type: cell-based
Description: as §1
Add 50 uL of BMMC cell supernatant (see above) to the hexoseaminidase substrate, place at 37° C. for 30 minutes and read the plate at 5, 10, 15, and 30 minutes on a spectrophotometer.

[7] = test system: cultured human mast cells (CHMC); assay: CHMC high cell density IgE activation: TNFalpha; assay type: cell-based; conditions: read-out: CHMC high density TNF-alpha
Description: as §1

[8] = test system: cultured human mast cells (CHMC); assay: CHMC low cell density IgE activation: tryptase assay; assay type: cell-based; conditions: Low Density CHMC, anti-IgE activation, tryptase release; read-out: CHMC anti-IgE Tryptase IC50
How it was run: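 Cultured human mast cells (1000-1500 cells/well, donor-dependent) equilibrated 1 hr at 37° C, then stimulated with anti-IgE for 30 min at 37° C. Tryptase released into the supernatant is measured with a fluorogenic tryptase substrate after 30 min at room temperature.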

[9] = test system: cultured human mast cells (CHMC); assay: CHMC low cell density IgE activation: LTC4 assay; assay type: cell-based; conditions: anti-IgE activation, LTC4 release
Description: Pellet CHMC cells (980 rpm, 10 min) and resuspend in pre-warmed MT. Add 65 ul of cells to each 96-well plate. Depending on the degranulation activity for each particular CHMC donor, load 1000-1500 cells/well. Mix four times followed by a 1 hr incubation at 37° C. […] Stimulate cells by adding 25 ul of 6× anti-IgE solution to the appropriate plates. Add 25 ul MT to un-stimulated control wells. Mix twice following addition of the anti-IgE. Incubate at 37° C. for 30 minutes. […] Spin plates at 1000 rpm for 10 min to pellet cells. Transfer 25 ul of supernatant to a 96-well black bottom plate and add 100 ul of freshly diluted tryptase substrate solution to each well. Incubate plates at room temperature for 30 min.
Leukotriene C4 (LTC4) is also quantified using an ELISA kit on appropriately diluted supernatant samples (determined empirically for each donor cell population so that the sample measurement falls within the standard curve) following the supplier's instructions.

[10] = test system: cultured human mast cells (CHMC); assay: CHMC high cell density IgE activation: tryptase; assay type: cell-based
Description: as §1

[11] = Mouse Reverse Passive Arthus reaction (RPA reaction); assay type: in vivo, C57BL/6 mice; conditions: oral, 100 mg/kg
Description: In this model system, test compounds are administered at several timepoints prior to administration of Abs and Ags. A solution of rabbit anti-OVA IgG (50 μg in 25 μl/mouse) is injected intradermally, and immediately following is an intravenous injection of chicken egg albumin (20 mg/kg of body weight) in a solution containing 1% Evans blue dye. The degree of edema and hemorrhage is measured in the dorsal skin of C57BL/6 mice using the Evan's Blue dye as an indicator of local tissue damage. Purified polyclonal rabbit IgG is used as a control.
Pretreatment time, in which the test compounds are administered prior to Ab/Ag challenge, depends on the pharmacokinetic (PK) properties of each individual compound. Four hours after induction of Arthus reaction, mice are euthanized, and tissues are harvested for assessment of edema.

[12] = test system: basophil cells (human peripheral blood); assay: Basophil anti-IgE activation: histamine release assay; assay type: cell-based; conditions: basophils, anti-IgE activation, histamine release; read-out: Basophils anti-IgE Histamine IC50
Description: (§2) The basophil activation assay was carried out using whole human peripheral blood from donors allergic to dust mites with the majority of the red blood cells removed by dextran sedimentation. Human peripheral blood was mixed 1:1 with 3% dextran T500 and RBCs were allowed to settle for 20-25min. The upper fraction was diluted with 3 volumes of D-PBS and cells were spun down for 10 min at 1500 rpm, RT. Supernatant was aspirated and cells were washed in an equal volume MT-buffer. Finally, cells were resuspended in MT-buffer containing 0.5% DMSO in the original blood volume. 80 uL cells were mixed with 20 uL compound in the presence of 0.5% DMSO, in triplicate, in a V-bottom 96-well tissue culture plate. A dose range of 8 compound concentrations was tested resulting in a 10-point dose response curve including maximum (stimulated) and minimum (unstimulated) response. […] The cells were stimulated for 30 minutes at 37° C., 5% CO2. The plate was spun for 10 min at 1500 rpm at room temperature and 80 uL the supernatant was harvested for histamine content analysis using the histamine ELISA kit supplied by Immunotech. The ELISA was performed according to supplier's instructions.

[13] = test system: basophil cells (human peripheral blood); assay: Basophil ionomycin activation: histamine release assay; assay type: cell-based; conditions: basophils, ionomycin activation, histamine release; read-out: Basophils Ionomycin Histamine IC50
Description: as §2
Assays for ionomycin-induced basophil cell degranulation were carried out as described for the Basophil IgE or Dustmite Activation Assay (Section 7.5.5, supra), with the exception that following incubation with compound, cells were stimulated with 20 μl of 2 μM ionomycin.

pIC50 (Syk kinase): 6.89 | pIC50 [1]: 5.45 | pIC50 (Primary human B-cells): 6.06
Structure (SMILES): O=C1Nc2cc(Nc3ncc(F)c(Nc4ccc5c(c4)NC(=O)C(F)(F)O5)n3)ccc2OC1(F)F [Compound R940352]
inhibition of FcγRI-mediated degranulation [2]: inhibit FcγRI-mediated degranulation

pIC50 [3]: 6.32 | pIC50 [1]: 5.45 | pIC50 [4]: 5.88 | pIC50 [5]: 5.04 | pIC50 [6]: 6.05 | pIC50 [7]: < 5.70 | pIC50 [8]: 6.60 | pIC50 [9]: 7.11 | pIC50 [10]: 5.96
Structure (SMILES): CNC(=O)c1cc2cc(Nc3ncc(F)c(Nc4cccc(O)c4)n3)ccc2o1 [Compound R926493]
pIC50 (Jurkat cells): < 5.36

pIC50 (Syk kinase): 6.69 | pIC50 [1]: 4.51 | Plasma Concentration ± SEM (ng/ml) Exposure = Pretreatment Time + 4 hours ([11]; pretreatment time 0.5 hrs + 4 hours): 0.6 ± 1 ng/mL | Plasma Concentration ± SEM (ng/ml) Exposure = Pretreatment Time + 4 hours ([11]; pretreatment time 1 hrs + 4 hours): 4.2 ± 4 ng/mL | Plasma Concentration ± SEM (ng/ml) Exposure = Pretreatment Time + 4 hours ([11]; pretreatment time 2 hrs + 4 hours): 52.65 ± 39 ng/mL
Structure (SMILES): Fc1cnc(Nc2ccc3cn[nH]c3c2)nc1Nc1ccc(Cl)c(Cl)c1 [Compound R935372]
% inhibition to vehicle control Edema Size ± SEM ([11]; pretreatment time 0.5 hrs): −0.6 ± 6.2% | % inhibition to vehicle control Edema Size ± SEM ([11]; pretreatment time 1 hrs): 23.5 ± 7.4% | % inhibition to vehicle control Edema Size ± SEM ([11]; pretreatment time 2 hrs): −4.4 ± 17.7% | inhibition of FcγRI-mediated degranulation [2]: inhibit FcγRI-mediated degranulation

pIC50 [12]: < 5.00 | pIC50 [13]: < 5.00 | pIC50 [1]: < 5.00
Structure (SMILES): Fc1cnc(Nc2ccc3c(c2)OC(F)(F)C(F)(F)O3)nc1Nc1ccc2c(c1)OC(F)(F)C(F)(F)O2 [Compound R926037]

Source: patent US8158621B2, “Methods of treating or preventing autoimmune diseases with 2,4-pyrimidinediamine compounds” (Rigel Pharmaceuticals, Inc., priority 2002, dated 2012)
